The values that follow come from US20230390274A1 (EPIRIUM BIO INC., priority 2020, published 2023).

pIC50: −log10 of the molar value. A value given as a limit tells only on which side of the number the result lay.

The target in the first test is 15-PGDH/HPGD (Homo sapiens (Human), UniProt P15428). Nature of the test: hPGDH inhibitor screening biochemical assay. The settings on record: 10 nM 15-PGDH/HPGD, 15 μM PGE2, 0.25 mM NAD; read-out: hPGDH: Average IC50. Put shortly: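 10 nM recombinant 15-PGDH was preincubated with compound (10-point) for 10 min at 37° C. in 50 mM Tris-HCl pH 7.5, 0.01% Tween 20. Then 15 μM PGE2 and 0.25 mM NAD+ were added for 10 min at rt. NADH fluorescence (ex/em 340/485 nm) gave % inhibition versus 1% DMSO and a four-parameter IC50.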
Chain of 15-PGDH/HPGD (P15428 whole entry): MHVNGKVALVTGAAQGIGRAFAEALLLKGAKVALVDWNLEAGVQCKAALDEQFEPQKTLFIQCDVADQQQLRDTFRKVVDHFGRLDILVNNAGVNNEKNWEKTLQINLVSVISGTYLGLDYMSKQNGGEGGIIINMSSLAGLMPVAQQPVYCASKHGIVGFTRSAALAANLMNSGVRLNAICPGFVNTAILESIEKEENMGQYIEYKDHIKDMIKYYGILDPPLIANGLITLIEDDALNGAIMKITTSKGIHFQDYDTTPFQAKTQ
As usually defined, the pIC50 is −log10 of the IC50, conventionally taken in molar units. `CN(C)C(=O)c1ccc(-n2ccc3cc(C(=O)N4CCCCC4)cnc32)cc1` [A-141]: the pIC50 is over 7.00. Same read-out and setting: with `O=C(c1cnc2c(ccn2-c2cncc(-c3n[nH]c(C4CC4)n3)c2)c1)N1CCC(F)(F)CC1` [A-332, (1-(5-(5-cyclopropyl-1H-1,2,4-triazol-3-yl)pyridin-3-yl)-1H-pyrrolo[2,3-b]pyridin-5-yl)(4,4-difluoropiperidin-1-yl)methanone] the figure was over 7.00; with `O=C(c1cnc2c(ccn2-c2ccc(-c3nnc(C(F)(F)F)[nH]3)nc2)c1)N1CCC(F)(F)CC1` [A-334, (4,4-Difluoropiperidin-1-yl)(1-(6-(5-(trifluoromethyl)-4H-1,2,4-triazol-3-yl)pyridin-3-yl)-1H-pyrrolo[2,3-b]pyridin-5-yl)methanone], over 7.00; with `N#Cc1ccc(-n2cnc3cc(C(=O)N4CC(Cl)C4)cnc32)cc1` [A-194], over 7.00. The same measure, in the same setting: with `O=C(c1cnc2c(c1)ncn2-c1ccc(F)cc1)N1CCCCC1` [A-178] the figure was over 7.00; with `COc1ccc(-n2cnc3cc(C(=O)N4CCC(F)CC4)ccc32)cc1` [A-33], over 7.00; with `COc1ccc(-n2c(C)nc3cc(C(=O)N4CCC(F)CC4)ccc32)cc1` [A-303], over 7.00. Same read-out and setting: the value for `NS(=O)(=O)c1cccc(-n2ccc3cc(C(=O)N4CCC(F)(F)CC4)cnc32)c1` [A-279] was over 7.00; that for `O=C1CCN(C(=O)c2ccc3c(c2)ncn3-c2cccc(Cl)c2)C1` [A-24, 1-(1-(3-chlorophenyl)-1H-benzo[d]imidazole-5-carbonyl)pyrrolidin-3-one] was at most 6.00.

On to `O=C(c1cnc2c(c1)c(Cl)cn2-c1cncc(Cl)c1)N1CCCCC1` [A-170], for which the pIC50 is over 7.00.

Consider `O=C(O)c1ccc(-n2ccc3cc(C(=O)N4CCC(F)(F)CC4)cnc32)nc1` [A-264], for which the pIC50 was over 7.00. Still for that read-out and setting: with `CN(C)c1ccc(-n2ccc3cc(C(=O)N4CCCCC4)cnc32)cn1` [A-116] the figure was over 7.00; with `N#Cc1ccc(-n2ccc3cc(C(=O)N4C[C@H](F)C[C@H](F)C4)cnc32)cc1` [A-224, 4-(5-((3R,5S)-3,5-difluoropiperidine-1-carbonyl)-1H-pyrrolo[2,3-b]pyridin-1-yl)benzonitrile], over 7.00; with `NC(=O)[C@@H]1CCCN1C(=O)c1cccc(-n2ccc3cc(C(=O)N4CCC(F)(F)CC4)cnc32)c1` [A-276, (S)-1-(3-(5-(4,4-difluoropiperidine-1-carbonyl)-1H-pyrrolo[2,3-b]pyridin-1-yl)benzoyl)pyrrolidine-2-carboxamide], over 7.00. The same measure, in the same setting: with `CC(C)(C#N)c1cncc(-n2ccc3cc(C(=O)N4CCC(F)(F)CC4)cnc32)c1` [A-289, 2-(5-(5-(4,4-difluoropiperidine-1-carbonyl)-1H-pyrrolo[2,3-b]pyridin-1-yl)pyridin-3-yl)-2-methylpropanenitrile] the figure was over 7.00.

For `N#Cc1ccc(-n2ccc3cc(C(=O)N4CCC(F)CC4)cnc32)cc1` [A-114], the pIC50 is over 7.00. The same measure, in the same setting: the value for `COc1ccc(-n2cc(Cl)c3cc(C(=O)N4CCCCC4)cnc32)cc1` [A-166] was over 7.00; that for `O=C(c1ccc2c(c1)ncn2-c1ccc2c(c1)OCO2)N1CCCCC1` [A-37] was over 7.00. In the case of `O=C(c1cnc2c(ccn2-c2ccc(CO)cc2)c1)N1CCCCC1` [A-163], the pIC50 was over 7.00.

Take `COc1ccc(-n2cnc3cc(C(=O)N4CCCCC4)ccc32)nc1` [A-35]: the pIC50 is over 7.00. As for `COc1ccc(-n2cc(C)c3cc(C(=O)N4CCC(F)CC4)ccc32)cc1` [A-305, (4-fluoropiperidin-1-yl)(1-(4-methoxyphenyl)-3-methyl-1H-indol-5-yl)methanone], the pIC50 is over 7.00. Still for that read-out and setting: with `O=C(c1cnc2c(ccn2-c2cncc(Cl)c2)c1)N1CCCCC1` [A-144] the figure was over 7.00. Same read-out and setting: with `O=C(Nc1ccn(C2CC2)n1)c1cccc(-n2ccc3cc(C(=O)N4CCC(F)(F)CC4)cnc32)c1` [A-283, N-(1-cyclopropyl-1H-pyrazol-3-yl)-3-(5-(4,4-difluoropiperidine-1-carbonyl)-1H-pyrrolo[2,3-b]pyridin-1-yl)benzamide] the figure was over 7.00. The same measure, in the same setting: with `CC(C)(O)CCc1cc2cc(C(=O)N3CCC(F)(F)CC3)cnc2n1-c1ccc(C#N)cc1` [A-244, 4-(5-(4,4-difluoropiperidine-1-carbonyl)-2-(3-hydroxy-3-methylbutyl)-1H-pyrrolo[2,3-b]pyridin-1-yl)benzonitrile] the figure was over 7.00. Turning to `N#Cc1ccc(-n2ccc3cc(C(=O)N4CCC(F)(F)CC4)cnc32)cc1` [A-241, 4-(5-(4,4-difluoropiperidine-1-carbonyl)-1H-pyrrolo[2,3-b]pyridin-1-yl)benzonitrile], the pIC50 is over 7.00. Take `Nc1cncc(-n2ccc3cc(C(=O)N4CCCCC4)cnc32)c1` [A-156]: the pIC50 is over 7.00.

Take `NC[C@@H]1CN(c2ccc(-n3ccc4cc(C(=O)N5CCC(F)(F)CC5)cnc43)cn2)C(=O)O1` [A-269]: the pIC50 is over 7.00.

Turning to `O=C(Nc1ccno1)c1cncc(-n2ccc3cc(C(=O)N4CCC(F)(F)CC4)cnc32)c1` [A-257, 5-(5-(4,4-difluoropiperidine-1-carbonyl)-1H-pyrrolo[2,3-b]pyridin-1-yl)-N-(isoxazol-5-yl)nicotinamide], the pIC50 is over 7.00.

As for `COc1ccc(-n2c(CCNC(C)=O)nc3cc(C(=O)N4CCC(F)CC4)cnc32)cc1` [A-198], the pIC50 was at most 6.00. Same read-out and setting: with `O=C(Nc1ccn(C2CC2)n1)c1cncc(-n2ccc3cc(C(=O)N4CCC(F)(F)CC4)cnc32)c1` [A-284, N-(1-cyclopropyl-1H-pyrazol-3-yl)-5-(5-(4,4-difluoropiperidine-1-carbonyl)-1H-pyrrolo[2,3-b]pyridin-1-yl)nicotinamide] the figure was over 7.00; with `N#Cc1ccc(-n2ccc3nc(C(=O)N4CCC(F)CC4)ccc32)cc1` [A-259, 4-(5-(4-fluoropiperidine-1-carbonyl)-1H-pyrrolo[3,2-b]pyridin-1-yl)benzonitrile], at most 6.00; with `COc1ccc(-n2ccc3cc(C(=O)N4CC(c5ccccc5)C4)cnc32)cc1` [A-135], at most 6.00. The same measure, in the same setting: the value for `O=C(c1cnc2c(ccn2-c2ccc(O)nc2)c1)N1CCCCC1` [A-155] was over 7.00; that for `O=C(NC1CCNCC1)c1ccc(-n2ccc3cc(C(=O)N4CCC(F)(F)CC4)cnc32)cc1` [A-226] was over 7.00; that for `Cc1nc(-c2cncc(-n3ccc4cc(C(=O)N5CCC(F)(F)CC5)cnc43)c2)no1` [A-265, (4,4-difluoropiperidin-1-yl)(1-(5-(5-methyl-1,2,4-oxadiazol-3-yl)pyridin-3-yl)-1H-pyrrolo[2,3-b]pyridin-5-yl)methanone] was over 7.00. The same measure, in the same setting: the value for `COc1ccc(-n2nnc3cc(C(=O)N4CCC(F)CC4)ccc32)cc1` [A-312, (4-fluoropiperidin-1-yl)(1-(4-methoxyphenyl)-1H-benzo[d][1,2,3]triazol-5-yl)methanone] was over 7.00; that for `NC(=O)c1ccc(-n2ccc3cc(C(=O)N4CCC(F)CC4)cnc32)cc1` [A-122] was over 7.00. With `N#Cc1cc(-n2ccc3cc(C(=O)N4CCC(F)(F)CC4)cnc32)cnc1O` [A-286], the pIC50 was over 7.00. Turning to `COCCc1nc2cc(C(=O)N3CCC(F)CC3)cnc2n1-c1ccc(OC)cc1` [A-342], the pIC50 was at most 6.00. The same measure, in the same setting: the value for `CCC(CC)NC(=O)c1cncc(-n2ccc3cc(C(=O)N4CCC(F)(F)CC4)cnc32)c1` [A-219, 5-(5-(4,4-difluoropiperidine-1-carbonyl)-1H-pyrrolo[2,3-b]pyridin-1-yl)-N-(pentan-3-yl)nicotinamide] was over 7.00; that for `O=C(c1ccc2c(c1)ncn2-c1cccc(Cl)c1)N1CC2(CCC2)C1` [A-5] was over 7.00. Same read-out and setting: with `O=C(c1ccn2c(-c3cccc(Cl)c3)cnc2c1)N1CCCCC1` [A-94, (3-(3-chlorophenyl)imidazo[1,2-a]pyridin-7-yl)(piperidin-1-yl)methanone] the figure was over 7.00. Still for that read-out and setting: with `O=C(c1cnc2c(ccn2-c2cnccn2)c1)N1CCCCC1` [A-45] the figure was over 7.00; with `COc1ccc(-n2c(NC(C)=O)nc3cc(C(=O)N4CCC(F)CC4)cnc32)cc1` [A-68], at most 6.00. On to `CCOC(=O)Nc1cncc(-n2ccc3cc(C(=O)N4CCC(F)(F)CC4)cnc32)c1` [A-275, ethyl (5-(5-(4,4-difluoropiperidine-1-carbonyl)-1H-pyrrolo[2,3-b]pyridin-1-yl)pyridin-3-yl)carbamate], for which the pIC50 was over 7.00. Still for that read-out and setting: the value for `CNC(=O)c1ccc(-n2ccc3cc(C(=O)N4CCCCC4)cnc32)cc1` [A-140] was over 7.00; that for `O=C(c1ccc2c(-c3cccc(Cl)c3)c[nH]c2c1)N1CCCCC1` [A-89, (3-(3-chlorophenyl)-1H-indol-6-yl)(piperidin-1-yl)methanone] was over 7.00; that for `O=C(c1cnc2c(c1)c(Cl)cn2-c1ccc2c(c1)OC(F)(F)O2)N1CCCCC1` [A-168] was over 7.00.

For the compound `COc1ccccc1-c1cn(C)c2cc(C(=O)N3CCC(F)CC3)cnc12` [A-308, (4-fluoropiperidin-1-yl)(3-(2-methoxyphenyl)-1-methyl-1H-pyrrolo[3,2-b]pyridin-6-yl)methanone], the pIC50 was at most 6.00. Same read-out and setting: with `NC(=O)c1cccc(-n2ccc3cc(C(=O)N4CCCCC4)cnc32)c1` [A-160] the figure was over 7.00.

The same test, now with this note: Table 1, PGDH inhibitors with a 6-5 ring core; read-out: hPGDH: IC50.
Regarding `O=C(c1ccc2c(c1)ncn2-c1cccc(Cl)c1)N1CC2CCC(C2)C1` [drawing 97], the pIC50 was 7.33. On the same count and under the same terms, the value for `O=C(c1ccc2c(c1)ncn2-c1cccc(Cl)c1)N1CCCCCC1` [drawing 101] was 8.49; that for `O=C(c1ccc2c(c1)ncn2-c1cccc(Cl)c1)N1CCCCC1` [drawing 98] was 8.57; that for `O=C(c1ccc2c(c1)ncn2-c1ccc(O)c(Cl)c1)N1CCCCC1` [drawing 82] was 8.60.

Take `O=C(c1ccc2c(c1)ncn2-c1cccc(Cl)c1)N1CCC(F)C1` (stereo not shown): the pIC50 was 6.80.
